Test results reported in US20260374756A1, “HETEROCYCLIC COMPOUNDS AS INHIBITORS OF MONOACYLGLYCEROL LIPASE (MAGL)” (Hoffmann-La Roche Inc., priority 2022, published 2026).

Molecular target: T1, hMAGL (Homo sapiens, UniProt Q99685)
T1 sequence (Q99685 1-303): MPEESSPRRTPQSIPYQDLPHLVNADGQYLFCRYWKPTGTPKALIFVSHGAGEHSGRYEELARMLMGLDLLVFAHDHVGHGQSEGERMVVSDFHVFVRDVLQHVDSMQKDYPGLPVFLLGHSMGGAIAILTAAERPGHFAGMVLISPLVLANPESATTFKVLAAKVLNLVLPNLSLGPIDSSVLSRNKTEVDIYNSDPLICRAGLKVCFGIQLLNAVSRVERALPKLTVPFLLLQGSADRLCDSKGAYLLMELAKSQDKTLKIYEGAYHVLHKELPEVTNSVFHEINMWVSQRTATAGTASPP
Experiment: 2-AG assay: MAGL inhibition, hydrolysis of 2-arachidonoylglycerol to arachidonic acid followed by mass spectrometry
Type: biochemical
How it was run: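 MAGL preincubated with compound 15 min at RT in 50 mM Tris, 1 mM EDTA, 0.01% Tween-20, 2.5% DMSO; reaction started with 8 μM 2-AG (final), […], 30 min at RT. Quenched with acetonitrile containing d8-arachidonic acid; arachidonic acid quantified by RapidFire SPE-triple quad MS as arachidonic acid/d8 ratio.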

Row | SMILES | IC50
1 | N=S(=O)(c1cnn(CC2CC3(C2)CN(C(=O)N2CC4(CC(n5cnc(C6CC6)n5)C4)C2)C3)c1)C(F)(F)F (stereo not shown) [Example 349, [6-(3-cyclopropyl-1,2,4-triazol-1-yl)-2-azaspiro[3.3]heptan-2-yl]-[6-[[4-(trifluoromethylsulfonimidoyl)pyrazol-1-yl]methyl]-2-azaspiro[3.3]heptan-2-yl]methanone] | 1.02 nM
2 | O=C(N1CC2(CC(n3cnc(C(F)(F)F)n3)C2)C1)N1CC2(CN(Cc3ccn(CCC(F)(F)F)n3)C2)C1 [Example 312, [6-[3-(trifluoromethyl)-1,2,4-triazol-1-yl]-2-azaspiro[3.3]heptan-2-yl]-[6-[[1-(3,3,3-trifluoropropyl)pyrazol-3-yl]methyl]-2,6-diazaspiro[3.3]heptan-2-yl]methanone] | 183 nM
3 | O=C(N1CC2(CC(Cn3nccc3C(F)(F)F)C2)C1)N1CC2(CC(c3cc(C4(O)CC4)n[nH]3)C2)C1 [Example 5] | 1.7 nM
4 | O=C(N1CC2(CC(n3cnc(C(F)(F)F)n3)C2)C1)N1CC2(CN(Cc3coc(C(F)(F)F)n3)C2)C1 [Example 213, [6-[[2-(trifluoromethyl)oxazol-4-yl]methyl]-2,6-diazaspiro[3.3]heptan-2-yl]-[6-[3-(trifluoromethyl)-1,2,4-triazol-1-yl]-2-azaspiro[3.3]heptan-2-yl]methanone] | 168 nM
5 | O=C(N1CC2(CC(n3cnc(C(F)(F)F)n3)C2)C1)N1CC2(CN(Cc3nnnn3CC(F)(F)F)C2)C1 [Example 197, [6-[[1-(2,2,2-trifluoroethyl)tetrazol-5-yl]methyl]-2,6-diazaspiro[3.3]heptan-2-yl]-[6-[3-(trifluoromethyl)-1,2,4-triazol-1-yl]-2-azaspiro[3.3]heptan-2-yl]methanone] | 445 nM
6 | O=C(N1CC2(CC(n3cnc(C(F)(F)F)n3)C2)C1)N1CC2(CN(Cc3nc(C(F)(F)F)no3)C2)C1 [Example 172, [6-[[3-(trifluoromethyl)-1,2,4-oxadiazol-5-yl]methyl]-2,6-diazaspiro[3.3]heptan-2-yl]-[6-[3-(trifluoromethyl)-1,2,4-triazol-1-yl]-2-azaspiro[3.3]heptan-2-yl]methanone] | 55 nM
7 | O=C(N1CC2(CC(Cn3cnc(C(F)(F)F)n3)C2)C1)N1CC2(CC(n3cnc(C4CC4)n3)C2)C1 [Example 127, [6-(3-cyclopropyl-1,2,4-triazol-1-yl)-2-azaspiro[3.3]heptan-2-yl]-[6-[[3-(trifluoromethyl)-1,2,4-triazol-1-yl]methyl]-2-azaspiro[3.3]heptan-2-yl]methanone] | 1.06 nM
8 | O=C(N1CC2(CC(Cc3cc(C(F)F)n[nH]3)C2)C1)N1CC2(CC(n3cnc(C(F)F)n3)C2)C1 [Example 334, [6-[[3-(difluoromethyl)-1H-pyrazol-5-yl]methyl]-2-azaspiro[3.3]heptan-2-yl]-[6-[3-(difluoromethyl)-1,2,4-triazol-1-yl]-2-azaspiro[3.3]heptan-2-yl]methanone] | 9.74 nM
9 | CC(C)(C)c1ncc(CN2CC3(C2)CN(C(=O)N2CC4(CC(n5cnc(C6(O)CC6)n5)C4)C2)C3)s1 [Example 58, [6-[(2-tert-butylthiazol-5-yl)methyl]-2,6-diazaspiro[3.3]heptan-2-yl]-[6-[3-(1-hydroxycyclopropyl)-1,2,4-triazol-1-yl]-2-azaspiro[3.3]heptan-2-yl]methanone] | 8.12 nM
10 | O=C(N1CC2(CCN(Cc3cc(C(F)(F)F)sn3)CC2)C1)N1CC2(CC(n3cnc(C4(O)CC4)n3)C2)C1 [Example 48, [6-[3-(1-hydroxycyclopropyl)-1,2,4-triazol-1-yl]-2-azaspiro[3.3]heptan-2-yl]-[7-[[5-(trifluoromethyl)isothiazol-3-yl]methyl]-2,7-diazaspiro[3.5]nonan-2-yl]methanone] | 42.9 nM
11 | Cc1cc(C(F)F)n(CC2CC3(C2)CN(C(=O)N2CC4(CC(n5cnc(C6(O)CC6)n5)C4)C2)C3)n1 [Example 93, [6-[[5-(difluoromethyl)-3-methyl-pyrazol-1-yl]methyl]-2-azaspiro[3.3]heptan-2-yl]-[6-[3-(1-hydroxycyclopropyl)-1,2,4-triazol-1-yl]-2-azaspiro[3.3]heptan-2-yl]methanone] | 5.48 nM
12 | O=C(N1CC2(CC(Cc3cn(CC(F)(F)F)nc3C(F)(F)F)C2)C1)N1CC2(CC(n3cnc(C(F)(F)F)n3)C2)C1 [Example 121, [6-[[1-(2,2,2-trifluoroethyl)-3-(trifluoromethyl)pyrazol-4-yl]methyl]-2-azaspiro[3.3]heptan-2-yl]-[6-[3-(trifluoromethyl)-1,2,4-triazol-1-yl]-2-azaspiro[3.3]heptan-2-yl]methanone] | 0.35 nM
13 | O=C(N1CC2(CC(Cc3nc(C(F)(F)F)c[nH]3)C2)C1)N1CC2(CC(n3cnc(C(F)F)n3)C2)C1 [Example 326, [6-[3-(difluoromethyl)-1,2,4-triazol-1-yl]-2-azaspiro[3.3]heptan-2-yl]-[6-[[4-(trifluoromethyl)-1H-imidazol-2-yl]methyl]-2-azaspiro[3.3]heptan-2-yl]methanone] | 22.6 nM

Further lines, results first:

Row | IC50 | SMILES
14 | 0.23 nM | Cc1cc(C2CC2)nn1CC1CC2(C1)CN(C(=O)N1CC3(CC(n4cnc(C5CC5)n4)C3)C1)C2 [Example 135, [6-[(3-cyclopropyl-5-methyl-pyrazol-1-yl)methyl]-2-azaspiro[3.3]heptan-2-yl]-[6-(3-cyclopropyl-1,2,4-triazol-1-yl)-2-azaspiro[3.3]heptan-2-yl]methanone]
15 | 55.4 nM | Cn1cc(OC2CC3(C2)CN(C(=O)N2CC4(CC(n5cnc(C6(O)CC6)n5)C4)C2)C3)c(C(F)(F)F)n1 [Example 59, [6-[3-(1-hydroxycyclopropyl)-1,2,4-triazol-1-yl]-2-azaspiro[3.3]heptan-2-yl]-[6-[1-methyl-3-(trifluoromethyl)pyrazol-4-yl]oxy-2-azaspiro[3.3]heptan-2-yl]methanone]
16 | 0.33 nM | O=C(N1CC2(CC(Cc3cc(C(F)F)n[nH]3)C2)C1)N1CC2(CC(c3cc(C4CC4)n[nH]3)C2)C1 [Example 294, [6-(3-cyclopropyl-1H-pyrazol-5-yl)-2-azaspiro[3.3]heptan-2-yl]-[6-[[3-(difluoromethyl)-1H-pyrazol-5-yl]methyl]-2-azaspiro[3.3]heptan-2-yl]methanone]
17 | 133 nM | Cc1nn(CC(F)(F)F)cc1CN1CC2(C1)CN(C(=O)N1CC3(CC(n4cnc(C5CC5)n4)C3)C1)C2 [Example 113, [6-(3-cyclopropyl-1,2,4-triazol-1-yl)-2-azaspiro[3.3]heptan-2-yl]-[6-[[3-methyl-1-(2,2,2-trifluoroethyl)pyrazol-4-yl]methyl]-2,6-diazaspiro[3.3]heptan-2-yl]methanone]
18 | 85.7 nM | Cc1sc(CN2CC3(C2)CN(C(=O)N2CC4(CC(n5cnc(C(F)(F)F)n5)C4)C2)C3)nc1C(F)(F)F [Example 54, [6-[[5-methyl-4-(trifluoromethyl)thiazol-2-yl]methyl]-2,6-diazaspiro[3.3]heptan-2-yl]-[6-[3-(trifluoromethyl)-1,2,4-triazol-1-yl]-2-azaspiro[3.3]heptan-2-yl]methanone]
19 | 2090 nM | O=C(N1CC2(CC(n3cnc(C4(O)CC4)n3)C2)C1)N1CC2(CN(Cc3nnc(C(F)(F)F)s3)C2)C1 [Example 84, [6-[3-(1-hydroxycyclopropyl)-1,2,4-triazol-1-yl]-2-azaspiro[3.3]heptan-2-yl]-[6-[[5-(trifluoromethyl)-1,3,4-thiadiazol-2-yl]methyl]-2,6-diazaspiro[3.3]heptan-2-yl]methanone]
20 | 4.16 nM | O=C(N1CC2(CC(Cn3cnc(C(F)(F)F)c3)C2)C1)N1CC2(CC(n3cnc(C4CC4)n3)C2)C1 [Example 40, [6-(3-cyclopropyl-1,2,4-triazol-1-yl)-2-azaspiro[3.3]heptan-2-yl]-[6-[[4-(trifluoromethyl)imidazol-1-yl]methyl]-2-azaspiro[3.3]heptan-2-yl]methanone]
21 | 190 nM | N#Cc1cnn(CC2CC3(C2)CN(C(=O)N2CC4(CC(n5cnc(C6(O)CC6)n5)C4)C2)C3)c1 [Example 38]
22 | 0.92 nM | Cn1ncc(OC2CC3(C2)CN(C(=O)N2CC4(CC(n5cnc(C6CC6)n5)C4)C2)C3)c1C(F)(F)F [Example 247, [6-(3-cyclopropyl-1,2,4-triazol-1-yl)-2-azaspiro[3.3]heptan-2-yl]-[6-[1-methyl-5-(trifluoromethyl)pyrazol-4-yl]oxy-2-azaspiro[3.3]heptan-2-yl]methanone]
23 | 21.8 nM | O=C(N1CC2(CCC(Cc3nnc(C(F)(F)F)[nH]3)CC2)C1)N1CC2(CC(n3cnc(C(F)(F)F)n3)C2)C1 [Example 34, [6-[3-(trifluoromethyl)-1,2,4-triazol-1-yl]-2-azaspiro[3.3]heptan-2-yl]-[7-[[5-(trifluoromethyl)-4H-1,2,4-triazol-3-yl]methyl]-2-azaspiro[3.5]nonan-2-yl]methanone]
24 | 10.8 nM | O=C(N1CC2(CC(Oc3cnn(CC(F)(F)F)c3)C2)C1)N1CC2(CC(n3cnc(C4CC4)n3)C2)C1 [Example 249, [6-(3-cyclopropyl-1,2,4-triazol-1-yl)-2-azaspiro[3.3]heptan-2-yl]-[6-[1-(2,2,2-trifluoroethyl)pyrazol-4-yl]oxy-2-azaspiro[3.3]heptan-2-yl]methanone]
25 | 9.77 nM | Cc1nc(C)c(CN2CC3(C2)CN(C(=O)N2CC4(CC(n5cnc(C6CC6)n5)C4)C2)C3)s1 [Example 302, [6-(3-cyclopropyl-1,2,4-triazol-1-yl)-2-azaspiro[3.3]heptan-2-yl]-[6-[(2,4-dimethylthiazol-5-yl)methyl]-2,6-diazaspiro[3.3]heptan-2-yl]methanone]
